Laboratory results from US7968097B2, “Identification of Hla-A2-presented T-cell epitopes derived from the oncofoetal antigen-immature laminin receptor protein and uses thereof” (Immatics Biotechnologies GmbH, priority 2005, dated 2011).
“Also recorded” adds a separate entry of the source.

Test system: PBMC of HLA-A*02 positive healthy donors
Test: IFN-γ ELISPOT, healthy donors
Settings: peripheral blood samples of healthy donors, IFN-γ ELISPOT
Description: To determine the frequency of OFA/iLR peptide-specific T cells in patients, ELISPOT-assays were performed using the Interferon-γ-ELISPOT-Kit (Becton Dickinson, Heidelberg, Germany) according to manufacturer's instructions.
Prior to analysis, T cells from patients and healthy donors had been kept in culture for seven days in the presence of Interleukin-2 (IL microgram/10^6 PBMC/milliliter).

LLAARAIVAI (listed as Homo sapiens) [ILR1]
CTL / spontaneous T cell responses against peptide in healthy individuals: no spontaneous T cell responses; also recorded: low numbers of CTL

ALCNTDSPL (listed as Homo sapiens) [ILR2]
CTL / spontaneous T cell responses against peptide in healthy individuals: no spontaneous T cell responses; also recorded: low numbers of CTL
